Structures can show the parent of a compound that is named as a salt. Blank lines part the entries; values can stand above or below the compound they belong to.
Tests used:
[1] = system: adrenergic α1 receptor; test: Mechanism study: albumin secretion with adrenergic receptor blocking agents added with methoxamine in Stage 3; assay type: cell-based, human; settings: 10 μM blocking agent added with methoxamine in Stage 3, 8 days
[2] = system: hepatoblasts induced from human iPS cells; test: Albumin secreted into the culture medium measured by ELISA; assay type: cell-based; settings: 1 μM in Stage 3, 8 days
[3] = system: Mouse ES cells (D3 cell line); test: Mouse ES cell-derived cells immunostained with anti-albumin, anti-Cyp3a4 and anti-C/ebpβ antibodies; assay type: cell-based; settings: Stage 3, 8 days; compared with HGF+OsM
Procedure: The content ratio of Sox17-positive cells was determined.
The content ratio of AFP-positive cells was determined.
The cells were cultured for 8 days.
The cells cultured in the medium containing methoxamine in Stage 3 for 8 days, the cells cultured in the medium containing HGF+OsM (positive control) in the same manner as above and also the cells cultured in the medium containing DMSO (negative control) were used. These cells were immuno-stained with an anti-albumin antibody (Albumin), anti-Cyp3a4 antibody and anti-C/ebpβ antibody.

[4] = system: hepatocytes induced from human iPS cells; test: Gene expression profile by RNA sequencing analysis (PCA, liver marker heat map); assay type: cell-based
Text: The hepatocytes induced from human iPS cells were subjected to RNA sequencing analysis and gene expression profiles were compared.

[5] = system: cells obtained in Stage 2 (from human iPS cells); test: PAS staining of induced cells (glycogen accumulation); assay type: cell-based; settings: agent in Stage 3 for 8 days
Procedure: (§1) 1 mg/ml ICG (indocyanine green) (Sigma) was added to each cell population and cultured for 1 hour. Then, ICG uptake by the cells was observed.
The cells induced in the presence of HGF+OsM, methoxamine hydrochloride or DMSO, and HepG2 were stained with PAS.

[6] = system: cells obtained in Stage 2 (from human iPS cells); test: Oil Red staining of induced cells; assay type: cell-based; settings: agent in Stage 3 for 8 days
Procedure: as §1
The cells induced in the presence of HGF+OsM, methoxamine hydrochloride or DMSO and HepG2 were stained with Oil Red.

[7] = system: hepatoblasts induced from human iPS cells 201B6; test: Induction of albumin-positive cells in Stage 3 (anti-albumin immunostaining, albumin mRNA by quantitative PCR); assay type: cell-based
Procedure: The effects of analogous compounds (adrenergic receptor agonist, in particular, an agent having α receptor stimulating action) serving as an alternative compound for a methoxamine hydrochloride were checked. In Stage 3 as mentioned above, cells were cultured in a Hepatocyte Culture Medium (HCM SingleQuots Kit) supplemented with 1 μM etilefrine, phenylephrine or methoxamine hydrochloride for 8 days. The content ratio of albumin-positive cells and the mRNA expression level of albumin were measured in the same manner as above. […] Furthermore, the amount of albumin secreted from the obtained cell population into the culture mediumliquid was measured by ELISA.

[8] = system: cells obtained in Stage 2 (from human iPS cells); test: ICG (indocyanine green) uptake by induced cells; assay type: cell-based; settings: agent in Stage 3 for 8 days (methoxamine hydrochloride 1 μM; HGF and oncostatin M 20 ng/ml each); 1 mg/ml ICG, 1 hour
Procedure: as §1

[9] = system: CYP1A1; test: Drug metabolizing enzyme induction reaction: CYP1A1 mRNA by quantitative PCR; assay type: in vitro ADME, human; settings: 100 μM omeprazole, 2 days
[10] = system: Mouse ES cells (D3 cell line); test: Induction of hepatocytes from mouse ES cells: expression of Tat, Cyp3a11, Cyp3a13; settings: 1 μM in Stage 3, 8 days; compared with HGF+OsM
[11] = system: CYP3A4; test: CYP3A4 expression in induced cells (immunostaining and quantitative PCR)
Procedure: A cell population obtained by culturing the cells obtained in Stage 2 in a Hepatocyte Culture Medium (HCM SingleQuots Kit) containing 20 ng/ml HGF and 20 ng/ml oncostatin M (HGF+OsM) for 8 days; a cell population obtained by culturing the cells obtained in Stage 2 in a Hepatocyte Culture Medium (HCM SingleQuots Kit) supplemented with 1 μM methoxamine hydrochloride for 8 days; a cell population obtained by culturing the cells obtained in Stage 2 in a Hepatocyte Culture Medium (HCM SingleQuots Kit) supplemented with 1 μM pregnenolone for 8 days; and a cell population obtained by culturing the cells obtained in Stage 2 in a Hepatocyte Culture Medium (HCM SingleQuots Kit) supplemented with DMSO for 8 days were immuno-stained with a CYP3A4 antibody (Proteintech Group) (FIG. 9A). […] CYP3A4mRNA expression levels were measured in these cell populations by quantitative PCR in the same manner as above.

volume of albumin secretion [1]: decreased
SMILES: COc1cc2nc(N3CCN(C(=O)C4COc5ccccc5O4)CC3)nc(N)c2cc1OC (centres unmarked) [doxazosin]

SMILES: CCNCC(O)c1cccc(O)c1 (centres unmarked) [etilefrine]
amount of albumin secreted into the culture medium (ELISA) [2]: cells having an ability to secrete albumin can be induced

immunostaining for Albumin, Cyp3a4 and C/ebpβ [3]: very similar expression was observed
SMILES: COc1ccc(OC)c(C(O)C(C)N)c1 (centres unmarked) [methoxamine hydrochloride]
gene expression profile compared with hepatocytes induced by HGF and OsM [4]: substantially the same gene expression profile
amount of albumin secreted into the culture medium (ELISA) [2]: cells having an ability to secrete albumin can be induced
PAS staining (glycogen) of the induced cells [5]: stained red-purple
Oil Red staining (lipid drops) of the induced cells [6]: accumulation of lipid drops was observed in some of the cells
concentration at which albumin-expressing cells were obtained (albumin mRNA, quantitative PCR) ([7]; Stage 3, 8 days, tested 0 M, 1 fM, 1 pM, 1 nM, 1 μM, 50 μM, 100 μM): ≥ 1 fM
ICG uptake by the induced cells [8]: ICG uptake was observed

CYP1A1 mRNA expression level ([9]; HepG2 cells): expression of CYP1A1 was induced
CYP1A1 mRNA expression level ([9]; cell population induced with 1 μM methoxamine hydrochloride in Stage 3): expression of CYP1A1 was induced
CYP1A1 mRNA expression level ([9]; cell population induced with HGF+OsM in Stage 3): expression of CYP1A1 was induced
SMILES: COc1ccc2[nH]c([S+]([O-])Cc3ncc(C)c(OC)c3C)nc2c1 (centres unmarked) [omeprazole]

SMILES: CNC[C@H](O)c1cccc(O)c1 [phenylephrine]
amount of albumin secreted into the culture medium (ELISA) [2]: cells having an ability to secrete albumin can be induced

SMILES: CC(=O)[C@H]1CC[C@H]2[C@@H]3CC=C4C[C@@H](O)CC[C@]4(C)[C@H]3CC[C@]12C [pregnenolone]
expression of Tat, Cyp3a11 and Cyp3a13 [10]: express the same drug metabolizing enzymes as in the case where HGF+OsM was used
CYP3A4 immunostaining of the induced cells ([11]; agent in Stage 3 for 8 days (1 μM; HGF and oncostatin M 20 ng/ml each)): Cells expressing CYP3A4 were found
CYP3A4 mRNA expression level (quantitative PCR) ([11]; agent in Stage 3 for 8 days, relative to cells induced with DMSO): intensively expressed
induction of albumin-positive cells at two concentrations ([7]; pregnenolone 150 nM and 1 μM in Stage 3): the same results were obtained

— patent US10711249B2, “Method for inducing hepatocytes” (KYOTO UNIVERSITY, priority 2014, dated 2020)
